The source of these data is patent US20260287586A1, “METHODS OF TREATING TKI-RESISTANT AND SDH-DEFICIENT GIST” (priority 2023, published 2026).

One series concerns SDH-deficient GIST. Kind of series: Phase 1 trial HQP1351-SJ-0003: antitumor efficacy per RECIST v1.1 in SDH-deficient GIST subgroup. The class given is in vivo, human. The source says: NCT03594422). The dose escalation aspect of the study enrolled patients with advanced and/or metastatic GIST or other solid tumors that were refractory or had relapsed after treatment with at least one TKI. […] All AEs were graded according to the US National Cancer Institute (NCI) Common Terminology Criteria for Adverse Events (CTCAE; version 4.03). […] Urinalysis, coagulation, cardiac troponin I/T, lipase, amylase, and electrocardiograms were done at baseline; during cycles 1 and 2 (on days 1 and 15); cycle 3, 5, 7, and 9; every 3 cycles after cycle 9 (on day 1); and 14 days after the last dose of treatment. All patients underwent tumor imaging for response assessment via computed tomography or magnetic resonance imaging at screening and every two cycles (8 weeks) until progression or discontinuation. Target and nontarget lesions were assessed per Response Evaluation Criteria in Solid Tumors version 1.1 (RECIST v1.1). CBR was defined as the proportion of patients with a confirmed CR or PR of any duration or SD for at least 16 weeks from the start of treatment (CBR=CR+PR+SD≥16 weeks). ORR was defined as the proportion of patients with a confirmed CR or PR of any duration (ORR=CR+PR). PFS was defined as the time from the start of treatment to the date of first documented disease progression or death due to any cause, whichever occurred first. OS was defined as the time from start of treatment until the date of death. We evaluated antitumor activity in patients from the SDH-deficient GIST population who had at least one postbaseline disease assessment. We used Kaplan-Meier methods to estimate PFS, and OS; corresponding 95% CIs are provided. Efficacy results for patients with SDH-deficient GIST are reported separately. All statistical analyses were performed with SAS (version 9.3 or higher; SAS Institute, Cary, NC).

The conditions of series [1]: for AUClast: fed, Day 27 steady state, mean (SD). On the procedure:
Noncompartmental pharmacokinetic (PK) analysis was conducted using Phoenix WinNonlin software (Version 6.4).

Series [2] concerns SDH-deficient primary GIST cells. Nature of the series: Antiproliferation in SDH-deficient primary GIST cells (CellTiter 96 Aqueous assay, 72 hours). It counts as cell-based, human. As to conditions: all three primary cell lines derived from patients with SDH-deficient GIST. The method, then: Cells were seeded into 6-well plates and incubated overnight in complete culture medium.
All samples were collected at Sun Yat-sen University Cancer Center with informed consent obtained from each subject. The study, which involved human subjects, was approved by the Medical Ethics Committee of Sun Yat-sen University Cancer Center.
The tissues from GIST patient samples were sustained in Dulbecco's modified Eagle medium (DMEM)/F12 medium containing 1% antibiotic and washed with phosphate-buffered saline (PBS) and then cut into fragments by surgical ophthalmic scissors. The tissues were digested with 1 mg/mL collagenase IV at 37° C. for 30 minutes, followed by filtration of the suspension into single cells with a single-cell strainer centrifugation. […] The procedures were performed as per manufacturers' instructions.

Series [3] concerns PC12 or PC12 #5F7 (SDHB KD) cells. Kind of series: Cell death assay (AO/PI staining). It counts as cell-based, rat. As to conditions: 24 hours exposure; FIG. 2B left. The method, then: (§1) Cells were extracted from SDH-deficient patient tumor tissues, seeded into 96-well plates, and incubated for 24 hours in GIST culture medium. […] Right panel, Colony formation assay in renal carcinoma cells 7860 (SDHB-wild-type) and OS-RC-2 (SDHB-deficient). Cells were seeded into 6-well plates and incubated overnight in complete culture medium.
Rat pheochromocytoma cells (PC12 or PC12 SDHB KD cells PC12 #5F7) were seeded into 24-well plates and incubated overnight in complete culture medium. […] The cell suspension was mixed at a 1:1 ratio with Viastain™ AOPI Staining solution (acridine orange/propidium iodide, #2210170205, Nexelcom Bioscience, Lawrence, MA, USA). After staining, dead cells were counted on a Cellometer® Auto 2000 Cell Counter (Nexelcom).

In series [4] the test system is OS-RC-2 (SDHB-deficient) and 785-O (SDHB-competent) renal carcinoma cells. Kind of series: Cell colony formation assay. It counts as cell-based. As to conditions: 7 days (SDHB-competent line), 10 days (OS-RC-2); FIG. 2B right. The method, then:
as §1
For the colony formation assay, 1,000 cells were plated in 6-well plates per well, incubated for 7 to 14 days, then stained with 0.1% crystal violet and colony numbers counted.

Series [5] relates to oncogenic signaling proteins in SDHB KD PC12 #5F7 cells. Kind of series: Western blot analysis of oncogenic signaling proteins. The class given is cell-based, rat. On the procedure:
as §1
Harvested cells treated with dimethyl sulfoxide (DMSO) or indicated concentrations of compounds were lysed in radio-immunoprecipitation (RIPA) buffer (#P0013, Beyotime, China) containing a protease inhibitor cocktail (#20104ES08, Yeasen Biotechnology Co., Ltd., Shanghai) and a phosphatase inhibitor (#20109-A, #20109-B, Yeasen). Equal amounts of protein were separated by 4-20% sodium dodecyl sulfate polyacrylamide gel electrophoresis (SDS-PAGE) and transferred to nitrocellulose membranes. After being blocked with 3% bovine serum, membranes were incubated with primary antibodies, followed by horseradish peroxidase (HRP)-conjugated secondary antibody (#7074, anti-rabbit IgG, CST; #7076, anti-mouse IgG, CST). Finally, bound secondary antibodies were visualized using an ECL Western Blotting Detection Kit (Yeasen). […]
For orientation: A western blot detects proteins with antibodies after separation by electrophoresis.

Read-outs that look alike come from different tables or passages of the source.

Compound `Cc1ccc(C(=O)Nc2ccc(CN3CCN(C)CC3)c(C(F)(F)F)c2)cc1C#Cc1cnc2[nH]ncc2c1` [Olverembatinib, olverembatinib] displayed an overall survival rate with SDH-deficient GIST (SDH-deficient GIST cohort at data cut-off) of 100%. Also, the “complete response (CR)” value in the series with SDH-deficient GIST (SDH-deficient GIST subgroup, 26 evaluable patients) was “No patient experienced a complete response”. In the series on SDH-deficient GIST (SDH-deficient GIST subgroup, median follow-up 17.0 months), the “confirmed overall responses per RECIST v1.1” value is given as 6 of 26 evaluable patients. In the series with SDH-deficient GIST (SDH-deficient GIST, Kaplan-Meier estimate, RECIST v1.1), the “median progression-free survival (PFS)” value is listed as 25.7 months. For the same compound, the AUClast in series [1] (20 mg QOD oral, 2 subjects) is given as 228 ± 6.4 h*ng/m; in series [1] (30 mg QOD oral, 4 subjects), 307 ± 121 h*ng/m; in series [1] (40 mg QOD oral, 15 subjects), 473 ± 177 h*ng/m; in series [1] (50 mg QOD oral, 3 subjects), 518 ± 174 h*ng/m. Besides, the “accumulation after multiple-dose administration” value in series [1] (20 to 50 mg QOD) was “no significant accumulation”. Moreover, the “dose proportionality of Cmax and AUClast” value in series [1] (dose range of 20 to 50 mg) is “approximately dose-proportional increase”. Further, the “potency rank among TKIs” value in series [2] is recorded as “most potent inhibitor”. Also, in series [3], the “cell death activity in SDHB KD versus parental cells” value is “dose-dependently more potent activity in PC12 #5F7 than in parental PC12 cells”. In series [4], the “inhibition of clone formation, OS-RC-2 versus 785-O” value is given as “more significantly inhibited”. The “effect on HIF-1α, HIF-2α, VEGFA, FGFR1, IGF-1R, p-FGFR1, p-IGF-1R, STAT3, p-STAT3, Src and downstream AKT, ERK1/2” value in series [5] (24 h treatment, FIG. 2C) is given as “dose-dependently inhibited”. In addition, the “cleavage of caspase-3 and poly(ADP-ribose) polymerase 1 (apoptosis induction)” value in series [5] (tumor cell lines treated with olverembatinib) is “Increased cleavage of caspase-3 and poly(ADP-ribose) polymerase 1”.
